Source: patent publication US20050136444A1 (priority 2003, published 2005)

Legend:
Barrel Rotations [1] = test: Barrel rotations after ICV administration of NPFF; assay type: in vivo, rat; settings: naive rats
Source text: Given that this is the only mention in the literature with respect to NPFF and barrel-rotation, we attempted to replicate this effect using naive rats implanted with ICV cannula.

Barrel Rotations [2] = settings: 60 μg, reported by Panula et al. 1996; cited from earlier work
EP2 receptor = molecular target: T1, EP2 receptor (Homo sapiens, UniProt P43116); test: cAMP response to PGE2 in HEK-T cells (EP2 co-transfection); assay type: cell-based; settings: doses as high 10 μM
T1 construct: expressed in transfected cells; host or cells: HEK-T
Source text: An assay was established for measuring cAMP in transiently transfected cells that takes advantage of the fact that most cells that are transfected with one gene, can be simultaneously transfected with other genes. Thus, the NPFF1 and NPFF2 receptors were transfected along with a Gs-coupled receptor (EP2) at a ratio of 5:1.

[3] = tested on: 52° C. Water Tail Flick Test; test: 52° C. Water Tail Flick Test, intrathecal administration; assay type: in vivo, rat; settings: rats
Method: Rats were implanted with chronically indwelling intrathecal catheters (PE-10; 7.5 cm) allowing for the delivery of compounds to the lumbar spinal cord. As a positive control, rats were treated with various doses of morphine (3, 10 and 30 μg).
Rats were implanted with chronically indwelling intrathecal catheters (PE-10; 7.5 cm) allowing for the delivery of compounds to the lumbar spinal cord.
Rats were implanted with chronically indwelling intrathecal catheters (PE-10; 7.5 cm) allowing for the delivery of compounds to the lumbar spinal cord. In order to rule out the possibility that the lack of antinociception produced by NPFF was due to the degradation of the peptide we administered 1DME (a stable NPFF analog).

T1 sequence (P43116 whole entry): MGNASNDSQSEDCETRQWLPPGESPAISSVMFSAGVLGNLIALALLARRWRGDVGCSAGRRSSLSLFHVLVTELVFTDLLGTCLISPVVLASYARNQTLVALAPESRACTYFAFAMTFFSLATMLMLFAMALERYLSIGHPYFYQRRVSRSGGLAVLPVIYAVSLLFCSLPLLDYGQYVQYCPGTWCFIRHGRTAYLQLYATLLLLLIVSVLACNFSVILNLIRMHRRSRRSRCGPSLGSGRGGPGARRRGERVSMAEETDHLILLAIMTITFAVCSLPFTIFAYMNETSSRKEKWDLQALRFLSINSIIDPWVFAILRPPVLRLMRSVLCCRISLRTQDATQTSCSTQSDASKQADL

CC(C)C[C@H](NC(=O)[C@@H](N)Cc1ccccc1)C(=O)N[C@@H](Cc1ccccc1)C(=O)N[C@@H](CCC(N)=O)C(=O)N1CCC[C@H]1C(=O)N[C@@H](CCC(N)=O)C(=O)N[C@@H](CCCN=C(N)N)C(=O)N[C@@H](Cc1ccccc1)C(N)=O [NPFF, Neuropeptide FF]
rats demonstrating barrel rolling seizures (Barrel Rotations [1]; 60 μg): 0 out of 3 | rats demonstrating barrel rolling seizures (Barrel Rotations [1]; 120 μg): 1 out of 2 | rats demonstrating barrel rolling seizures (Barrel Rotations [1]; 150 μg): 3 out of 5 | barrel-rotation after ICV administration (Barrel Rotations [2]): elicits barrel-rotation

CCCCC[C@H](O)/C=C/[C@H]1[C@H](O)CC(=O)[C@@H]1C/C=C\CCCC(=O)O [PGE2]
response in un-transfected HEK-T cells (EP2 receptor): no response

CN1CC[C@]23c4c5ccc(O)c4O[C@H]2[C@@H](O)C=C[C@H]3[C@H]1C5 [Morphine, morphine]
A50, antinociception ([3]; 95% CI): 9.8 µg | antinociception in 52° C. water tail flick test ([3]; morphine 3, 10, 30 μg, NPFF 100 μg, 1045 11.6 or 115.5 μg, 1DME 5.6, 55.6 or 556.0 μg): produced dose-related antinociception
